Laboratory results taken from patent US20230382925A1, “MODULATORS OF CYSTIC FIBROSIS TRANSMEMBRANE CONDUCTANCE REGULATOR” (VERTEX PHARMACEUTICALS INCORPORATED, priority 2020, published 2023).
Read-outs that look alike come from different tables or passages of the source.

Target: CFTR (Homo sapiens, UniProt P13569)
Assay: Membrane Potential Dye, Enteroid Assay B
Type: cell-based
Experimental: Base medium (ADF+++) consisted of Advanced […], 2 mM Glutamax, 10 mM HEPES, 1 μg/mL penicillin/streptomycin.
Intestinal enteroid maintenance medium (IEMMN) consisted of ADF+++, 1× B27 supplement, 1× N2 supplement, 1.25 mM N-acetyl cysteine, 10 mM Nicotinamide, 50 ng/mL hEGF, 10 nM Gastrin, 1 μg/mL hR-spondin-1, 100 ng/mL hNoggin, TGF-b type 1 inhibitor A-83-01, 100 μg/mL Primocin, 10 μM P38 MAPK inhibitor SB202190.
Bath 1 Buffer consisted of 1 mM MgCl2, 160 mM NaCl, 4.5 mM KCl, 10 mM HEPES, 10 mM Glucose, 2 mM CaCl2).
Chloride Free Buffer consisted of 1 mM Magnesium Gluconate, 2 mM Calcium Gluconate, 4.5 mM Potassium Gluconate, 160 mM Sodium Gluconate, 10 mM HEPES, 10 mM Glucose.
Bath 1 Dye Solution consisted of Bath 1 Buffer, 0.04% Pluronic F127, 20 μM Methyl Oxonol, 30 μM CaCCinh-A01, 30 μM Chicago Sky Blue.
Chloride Free Dye Solution consisted of Chloride Free Buffer, 0.04% Pluronic F127, 20 μM Methyl Oxonol, 30 μM CaCCinh-A01, 30 μM Chicago Sky Blue.
Chloride Free Dye Stimulation Solution consisted of Chloride Free Dye Solution, 10 μM forskolin, 100 μM IBMX, and 300 nM Compound III.
Human intestinal epithelial enteroid cells were obtained from the Hubrecht Institute for Developmental Biology and Stem Cell Research, Utrecht, The Netherlands and expanded in T-Flasks as previously described (Dekkers J F, Wiegerinck C L, de Jonge H R, Bronsveld I, Janssens H M, de Winter-de Groot K M, Brandsma A M, de Jong N W M, Bijvelds M J C, Scholte B J, Nieuwenhuis E E S, van den Brink S, Clevers H, van der Ent C K, Middendorp S and M Beekman J M. A functional CFTR assay using primary cystic fibrosis intestinal organoids. Nat Med. 2013 July; 19(7):939-45.).
3. Enteroid Cell Harvesting and Seeding
Cells were recovered in cell recovery solution, collected by centrifugation at 650 rpm for 5 min at 4° C., resuspended in TrypLE and incubated for 5 min at 37° C. Cells were then collected by centrifugation at 650 rpm for 5 min at 4° C. and resuspended in IEMM containing 10 μM ROCK inhibitor (RI). The cell suspension was passed through a 40 μm cell strainer and resuspended at 1×10^6 cells/mL in IEMM containing 10 μM RI. Cells were seeded at 5000 cells/well into multi-well plates and incubated for overnight at 37° C., 95% humidity and 5% CO2 prior to assay.
5. Membrane Potential Dye, Enteroid Assay B
Enteroid cells were incubated with test compound in IEMM for 18-24 hours at 37° C., 95% humidity and 5% CO2. […] Briefly, cells were washed 5 times in Bath 1 Buffer. Bath 1 Dye Solution was added and the cells were incubated for 25 min at room temperature. Following dye incubation, cells were washed 3 times in Chloride Free Dye Solution. Chloride transport was initiated by addition of Chloride Free Dye Stimulation Solution and the fluorescence signal was read for 15 min. […] Chloride transport was then expressed as a percentage of the chloride transport following treatment with 1 μM (14S)-8-[3-(2-{Dispiro[2.0.2.1]heptan-7-yl}ethoxy)-1H-pyrazol-1-yl]-12,12-dimethyl-2λ^6-thia-3,9,11,18,23-pentaazatetracyclo[17.3.1.111,14.05,10]tetracosa-1(22),5,7,9,19(23),20-hexaene-2,2,4-trione, 3 μM (R)-1-(2,2-difluorobenzo[d][1,3]dioxol-5-yl)-N-(1-(2,3-dihydroxypropyl)-6-fluoro-2-(1-hydroxy-2-methylpropan-2-yl)-1H-indol-5-yl)cyclopropanecarboxamide and 300 nM acute N-[2,4-bis(1,1-dimethylethyl)-5-hydroxyphenyl]-1,4-dihydro-4-oxoquinoline-3-carboxamide triple combination control (% Activity).

[1] = Table 10, read-out: Ent. B EC50

Sequence of CFTR (P13569 with tags, fused parts or gaps DEL508-508): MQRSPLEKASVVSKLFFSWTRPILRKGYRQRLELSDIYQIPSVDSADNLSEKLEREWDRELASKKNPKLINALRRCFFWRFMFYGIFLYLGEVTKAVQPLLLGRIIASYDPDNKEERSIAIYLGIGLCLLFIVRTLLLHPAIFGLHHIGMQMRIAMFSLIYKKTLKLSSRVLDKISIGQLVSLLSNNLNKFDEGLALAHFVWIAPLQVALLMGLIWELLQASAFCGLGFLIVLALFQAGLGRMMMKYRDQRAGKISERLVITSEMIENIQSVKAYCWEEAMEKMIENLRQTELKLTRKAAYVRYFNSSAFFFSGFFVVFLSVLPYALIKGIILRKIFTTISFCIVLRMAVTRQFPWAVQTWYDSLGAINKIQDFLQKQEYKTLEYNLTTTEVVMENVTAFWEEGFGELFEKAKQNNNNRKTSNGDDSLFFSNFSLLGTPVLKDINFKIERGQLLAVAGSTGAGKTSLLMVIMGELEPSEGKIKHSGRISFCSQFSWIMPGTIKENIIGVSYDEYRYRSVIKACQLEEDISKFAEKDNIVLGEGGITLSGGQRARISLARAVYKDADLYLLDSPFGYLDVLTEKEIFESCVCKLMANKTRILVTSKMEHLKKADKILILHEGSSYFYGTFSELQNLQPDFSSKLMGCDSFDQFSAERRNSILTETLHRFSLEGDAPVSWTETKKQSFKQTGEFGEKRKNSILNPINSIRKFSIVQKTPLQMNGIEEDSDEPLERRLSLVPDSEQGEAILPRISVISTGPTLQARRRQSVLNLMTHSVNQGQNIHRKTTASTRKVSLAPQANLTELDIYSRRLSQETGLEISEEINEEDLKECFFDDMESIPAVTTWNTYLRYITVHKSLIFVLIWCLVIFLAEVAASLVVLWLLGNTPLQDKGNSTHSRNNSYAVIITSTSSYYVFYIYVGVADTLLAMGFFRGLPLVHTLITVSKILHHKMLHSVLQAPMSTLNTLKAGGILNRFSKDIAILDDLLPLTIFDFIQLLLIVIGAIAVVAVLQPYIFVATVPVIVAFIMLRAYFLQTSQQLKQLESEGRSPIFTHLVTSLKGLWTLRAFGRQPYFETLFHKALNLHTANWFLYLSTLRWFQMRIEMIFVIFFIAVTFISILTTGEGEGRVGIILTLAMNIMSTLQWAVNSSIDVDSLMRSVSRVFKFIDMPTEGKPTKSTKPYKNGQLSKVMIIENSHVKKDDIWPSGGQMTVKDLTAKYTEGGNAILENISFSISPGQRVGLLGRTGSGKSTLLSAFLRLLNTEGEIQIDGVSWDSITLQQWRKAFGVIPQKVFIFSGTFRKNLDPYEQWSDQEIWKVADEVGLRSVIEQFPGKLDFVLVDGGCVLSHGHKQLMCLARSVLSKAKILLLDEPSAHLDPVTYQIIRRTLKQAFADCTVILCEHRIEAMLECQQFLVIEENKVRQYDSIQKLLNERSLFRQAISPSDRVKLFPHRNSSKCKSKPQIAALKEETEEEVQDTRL

Compound	Ent. B Max Activity (%) (Table 10)	EC50 [1] [nM]	also measured
CO[C@H]1C[C@@H](N2C(=O)c3cccc(c3)S(=O)(=O)Nc3nc(cc(-c4c(C)cccc4C)n3)OC[C@H]2CC(C)(C)C)C1 (single isomer, unassigned) [Compound 151]	–	–	Ent. B Max Activity (%): +++ (+++ is >60%); EC50 (read-out: Ent. B EC50): < 1000 nM
Cc1cccc(C)c1-c1cc2nc(n1)NS(=O)(=O)c1cccc(c1)C(=O)N([C@H]1C[C@@H](CC(C)(C)O)C1)[C@H](CC(C)(C)C)CO2 (single isomer, unassigned) [Compound 152]	+++ (+++ is >60%)	< 1000	–
Cc1cccc(C)c1-c1cc2nc(n1)NS(=O)(=O)c1cccc(c1)C(=O)N([C@H]1C[C@@H](CC(C)(C)O)C1)[C@H](CC(C)(C)C)CO2 (single isomer, unassigned) [Compound 153]	+++ (+++ is >60%)	< 1000	–
CC(=O)NCC[C@H]1C[C@@H](N2C(=O)c3cccc(c3)S(=O)(=O)Nc3nc(cc(-c4c(C)cccc4C)n3)OC[C@H]2CC(C)(C)C)C1 (single isomer, unassigned) [Compound 154]	+++ (+++ is >60%)	< 1000	–
CC(=O)NCC[C@H]1C[C@@H](N2C(=O)c3cccc(c3)S(=O)(=O)Nc3nc(cc(-c4c(C)cccc4C)n3)OC[C@H]2CC(C)(C)C)C1 (single isomer, unassigned) [Compound 155]	+++ (+++ is >60%)	< 1000	–
Cc1cccc(C)c1-c1cc2nc(n1)NS(=O)(=O)c1cccc(n1)C(=O)N(C1CC3(C1)CC(C(C)(C)O)C3)[C@H](CC(C)(C)C)CO2 (single isomer, unassigned) [Compound 161]	+++ (+++ is >60%)	< 1000	–
Cc1cccc(C)c1-c1cc2nc(n1)NS(=O)(=O)c1cccc(n1)C(=O)N(C1CC3(C1)CC(C(C)(C)O)C3)[C@H](CC(C)(C)C)CO2 (single isomer, unassigned) [Compound 162]	+++ (+++ is >60%)	< 1000	–
COC(=O)N[C@H]1C[C@@H](N2C(=O)c3cccc(c3)S(=O)(=O)Nc3nc(cc(-c4c(C)cccc4C)n3)OC[C@H]2CC(C)(C)C)C1 (single isomer, unassigned) [Compound 168]	–	–	Ent. B Max Activity (%) (Table 9): +++ (+++ is >60%); EC50 (Table 9, read-out: Ent. B EC50): < 1000 nM
COC(=O)N(C)C1CC(N2C(=O)c3cccc(c3)S(=O)(=O)Nc3nc(cc(-c4c(C)cccc4C)n3)OC[C@H]2CC(C)(C)C)C1 (single isomer, unassigned) [Compound 169]	+++ (+++ is >60%)	< 1000	–
COC(=O)N(C)C1CC(N2C(=O)c3cccc(c3)S(=O)(=O)Nc3nc(cc(-c4c(C)cccc4C)n3)OC[C@H]2CC(C)(C)C)C1 (single isomer, unassigned) [Compound 170]	++ (++ is 30-60%)	–	–
COC(=O)NC1(C)CC(N2C(=O)c3cccc(c3)S(=O)(=O)Nc3nc(cc(-c4c(C)cccc4C)n3)OC[C@H]2CC(C)(C)C)C1 (single isomer, unassigned) [Compound 171]	+++ (+++ is >60%)	< 1000	–
COC(=O)NC1(C)CC(N2C(=O)c3cccc(c3)S(=O)(=O)Nc3nc(cc(-c4c(C)cccc4C)n3)OC[C@H]2CC(C)(C)C)C1 (single isomer, unassigned) [Compound 172]	+++ (+++ is >60%)	< 1000	–
Cc1cccc(C)c1-c1cc2nc(n1)NS(=O)(=O)c1cccc(c1)C(=O)N(C1CC(NC(=O)OC(C)C)C1)[C@H](CC(C)(C)C(F)(F)F)CO2 (single isomer, unassigned) [Compound 192]	+++ (+++ is >60%)	< 1000	–
Cc1cccc(C)c1-c1cc2nc(n1)NS(=O)(=O)c1cccc(c1)C(=O)N(C1CC(NC(=O)OC(C)(C)C)C1)[C@H](CC(C)(C)C(F)(F)F)CO2 (single isomer, unassigned) [Compound 193]	–	–	Ent. B Max Activity (%) (Table 9): +++ (+++ is >60%); EC50 (Table 9, read-out: Ent. B EC50): < 1000 nM
Cc1cccc(C)c1-c1cc2nc(n1)NS(=O)(=O)c1cccc(c1)C(=O)N(C1CC(NC(=O)OC(C)(C)C)C1)[C@H](CC(C)(C)C(F)(F)F)CO2 (single isomer, unassigned) [Compound 194]	–	–	Ent. B Max Activity (%) (Table 9): +++ (+++ is >60%); EC50 (Table 9, read-out: Ent. B EC50): < 1000 nM

The next lines start with results.

Ent. B Max Activity (%) (Table 10)	EC50 [1] [nM]	Compound	also measured
++ (++ is 30-60%)	< 1000	Cc1cccc(C)c1-c1cc2nc(n1)NS(=O)(=O)c1cccc(c1)C(=O)N([C@H]1C[C@@](C)(OC(F)(F)F)C1)[C@H](CC(C)(C)C)CO2 (single isomer, unassigned) [Compound 156]	–
++ (++ is 30-60%)	< 1000	Cc1cccc(C)c1-c1cc2nc(n1)NS(=O)(=O)c1cccc(c1)C(=O)N(C1CC(C)(OC(F)(F)F)C1)[C@H](CC(C)(C)C)CO2 (single isomer, unassigned) [Compound 157]	–
+++ (+++ is >60%)	< 1000	Cc1cccc(C)c1-c1cc2nc(n1)NS(=O)(=O)c1cccc(c1)C(=O)N(C1CC(CO)(C(C)(C)O)C1)[C@H](CC(C)(C)C)CO2 (single isomer, unassigned) [Compound 159]	–
+++ (+++ is >60%)	< 1000	Cc1cccc(C)c1-c1cc2nc(n1)NS(=O)(=O)c1cccc(c1)C(=O)N(C1CC(CO)(C(C)(C)O)C1)[C@H](CC(C)(C)C)CO2 (single isomer, unassigned) [Compound 160]	–
++ (++ is 30-60%)	< 1000	Cc1cccc(C)c1-c1cc2nc(n1)NS(=O)(=O)c1cccc(c1)C(=O)N(C1CC(N)C1)[C@H](CC(C)(C)C)CO2 (single isomer, unassigned) [Compound 165]	–
++ (++ is 30-60%)	< 1000	Cc1cccc(C)c1-c1cc2nc(n1)NS(=O)(=O)c1cccc(c1)C(=O)N(C1CC(N)C1)[C@H](CC(C)(C)C)CO2 (single isomer, unassigned) [Compound 166]	–
++ (++ is 30-60%)	< 1000	Cc1cccc(C)c1-c1cc2nc(n1)NS(=O)(=O)c1cccc(c1)C(=O)N([C@H]1C[C@@H](N3CCOC3=O)C1)[C@H](CC(C)(C)C)CO2 (single isomer, unassigned) [Compound 167]	–
++ (++ is 30-60%)	< 1000	COC(=O)N(C)[C@]1(C)C[C@H](N2C(=O)c3cccc(c3)S(=O)(=O)Nc3nc(cc(-c4c(C)cccc4C)n3)OC[C@H]2CC(C)(C)C)C1 (single isomer, unassigned) [Compound 173]	–
++ (++ is 30-60%)	< 1000	Cc1cccc(C)c1-c1cc2nc(n1)NS(=O)(=O)c1cccc(c1)C(=O)N(C1CC3(COC(=O)N3C)C1)[C@H](CC(C)(C)C)CO2 (single isomer, unassigned) [Compound 174]	–
++ (++ is 30-60%)	< 1000	Cc1cccc(C)c1-c1cc2nc(n1)NS(=O)(=O)c1cccc(c1)C(=O)N(C1CC3(COC(=O)N3)C1)[C@H](CC(C)(C)C)CO2 (single isomer, unassigned) [Compound 175]	–
++ (++ is 30-60%)	< 1000	Cc1cccc(C)c1-c1cc2nc(n1)NS(=O)(=O)c1cccc(c1)C(=O)N(C1CC3(COC(=O)N3)C1)[C@H](CC(C)(C)C)CO2 (single isomer, unassigned) [Compound 176]	–
++ (++ is 30-60%)	< 1000	Cc1cccc(C)c1-c1cc2nc(n1)NS(=O)(=O)c1cccc(c1)C(=O)N(C1CC3(COC(=O)N3C)C1)[C@H](CC(C)(C)C)CO2 (single isomer, unassigned) [Compound 177]	–
